Assays:
Fms kinase = Fms kinase (Homo sapiens, UniProt P07333); assay: Fms kinase biochemical activity assay (AlphaScreen, biotin-(E4Y)10 phosphorylation); details: 100 μM ATP; read-out: Biochemical Inhibition IC50 Fms
Procedure, shortened: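 Fms kinase (1 ng/well) phosphorylating 30 nM biotin-(E4Y)10 with 100 μM ATP in 25 mM Hepes pH 7.5, MgCl2/MnCl2, 5% DMSO, 20 min at 30 °C. Phosphotyrosine detected by AlphaScreen streptavidin donor and PY20 acceptor beads; IC50 from signal versus compound concentration.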

BCR-FMS BaF3 cells = biological target: T1, BCR-FMS BaF3 cells (Homo sapiens, UniProt P07333); assay: BaF3 BCR-FMS cell proliferation assay (ATPlite); format: cell-based; details: read-out: Inhibition of Cell Proliferation IC50, BCR/BaF3 Fms
T1 construct: fused on or other part: P11274 (Breakpoint cluster region protein)
T1 sequence (P07333 582-910): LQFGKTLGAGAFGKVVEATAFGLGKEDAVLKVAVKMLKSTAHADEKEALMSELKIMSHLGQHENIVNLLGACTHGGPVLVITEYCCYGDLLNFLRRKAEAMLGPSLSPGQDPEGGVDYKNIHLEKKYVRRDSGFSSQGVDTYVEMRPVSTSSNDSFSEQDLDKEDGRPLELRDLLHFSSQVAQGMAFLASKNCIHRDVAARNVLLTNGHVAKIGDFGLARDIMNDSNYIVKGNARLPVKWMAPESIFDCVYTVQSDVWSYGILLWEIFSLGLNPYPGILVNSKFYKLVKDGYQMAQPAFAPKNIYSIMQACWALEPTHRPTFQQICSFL
Procedure, shortened: (§1)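 BaF3 lines were seeded at 10,000 cells/well in growth medium with 1 mg/mL G418 but no IL-3, and MV-4-11 cells at 25,000 cells/well; plates were left overnight at 37 °C. Compounds were added as an 8-point 1:3 series with a top concentration of 10 μM and incubated 3 days. IC50 was taken from ATPlite luminescence.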

BCR-KIT BaF3 cells = biological target: T2, BCR-KIT BaF3 cells (Homo sapiens, UniProt P10721); assay: BaF3 BCR-KIT cell proliferation assay (ATPlite); format: cell-based; details: read-out: Inhibition of Cell Proliferation IC50, BCR/BaF3 Kit
T2 construct: fused on or other part: P11274 (Breakpoint cluster region protein)
Procedure, shortened: as §1

Chain of Fms kinase (P07333 20-972): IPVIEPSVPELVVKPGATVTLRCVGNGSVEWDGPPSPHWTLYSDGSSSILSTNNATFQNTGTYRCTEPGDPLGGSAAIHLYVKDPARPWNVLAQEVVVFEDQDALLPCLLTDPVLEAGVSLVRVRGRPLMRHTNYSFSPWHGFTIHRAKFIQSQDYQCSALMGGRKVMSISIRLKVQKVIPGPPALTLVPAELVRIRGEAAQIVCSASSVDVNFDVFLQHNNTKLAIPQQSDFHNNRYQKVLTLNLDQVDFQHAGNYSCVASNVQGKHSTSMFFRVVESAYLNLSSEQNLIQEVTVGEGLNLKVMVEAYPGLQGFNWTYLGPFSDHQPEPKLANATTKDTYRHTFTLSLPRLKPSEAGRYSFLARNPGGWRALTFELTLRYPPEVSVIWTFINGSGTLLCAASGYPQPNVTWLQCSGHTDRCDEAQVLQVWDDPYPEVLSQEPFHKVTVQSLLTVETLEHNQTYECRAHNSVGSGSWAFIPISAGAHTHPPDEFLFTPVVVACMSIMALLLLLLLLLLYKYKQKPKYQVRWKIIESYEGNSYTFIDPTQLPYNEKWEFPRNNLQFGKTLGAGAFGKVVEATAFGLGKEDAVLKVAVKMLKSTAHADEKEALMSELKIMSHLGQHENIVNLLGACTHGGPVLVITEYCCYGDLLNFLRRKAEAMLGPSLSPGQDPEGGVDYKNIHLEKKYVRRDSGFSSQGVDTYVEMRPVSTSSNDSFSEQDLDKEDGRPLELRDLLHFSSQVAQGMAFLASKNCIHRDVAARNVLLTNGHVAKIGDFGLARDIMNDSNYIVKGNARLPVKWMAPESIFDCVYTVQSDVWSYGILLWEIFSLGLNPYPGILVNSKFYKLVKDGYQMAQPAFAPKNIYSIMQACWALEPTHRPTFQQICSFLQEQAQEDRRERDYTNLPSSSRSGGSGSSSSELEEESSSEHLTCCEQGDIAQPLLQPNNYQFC
T2 sequence (P10721 589-937): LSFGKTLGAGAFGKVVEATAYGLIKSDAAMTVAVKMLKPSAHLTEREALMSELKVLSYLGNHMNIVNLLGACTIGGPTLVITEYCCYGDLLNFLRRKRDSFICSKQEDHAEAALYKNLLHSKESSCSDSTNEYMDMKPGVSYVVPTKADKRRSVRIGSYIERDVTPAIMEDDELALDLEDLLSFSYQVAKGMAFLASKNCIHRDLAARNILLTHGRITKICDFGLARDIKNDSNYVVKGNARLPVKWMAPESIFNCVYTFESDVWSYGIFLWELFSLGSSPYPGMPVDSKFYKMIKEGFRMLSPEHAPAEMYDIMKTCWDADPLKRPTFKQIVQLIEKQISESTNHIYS

Row | IC50 (Fms kinase) [nM] | IC50 (BCR-FMS BaF3 cells) [nM] | IC50 (BCR-KIT BaF3 cells) [nM] | Structure (SMILES)
1 | < 100 | < 100 | > 1000 | Cc1cnc2[nH]cc(Cc3ccc(NC4CCCCC4)nc3F)c2c1 [Compound P-3008, cyclohexyl-[6-fluoro-5-(5-methyl-1H-pyrrolo[2,3-b]pyridin-3-ylmethyl)-pyridin-2-yl]-amine]
2 | < 10 | < 10 | < 1000 | Nc1ncnc2[nH]cc(C(=O)c3ccc(Nc4ccc(C5CC5)nc4)nc3F)c12 [Compound P-4048, (4-amino-7H-pyrrolo[2,3-d]pyrimidin-5-yl)-[6-[(6-cyclopropyl-3-pyridyl)amino]-2-fluoro-3-pyridyl]methanone]
3 | < 10 | < 1000 | < 1000 | CNc1ncnc2[nH]cc(C(=O)c3cnc(NC4CCC(F)(F)CC4)c(F)c3)c12 [Compound P-4054, [6-[(4,4-difluorocyclohexyl)amino]-5-fluoro-3-pyridyl]-[4-(methylamino)-7H-pyrrolo[2,3-d]pyrimidin-5-yl]methanone]
4 | < 1000 | < 1000 | > 1000 | O=C(c1cnc(NC2CCC(F)(F)CC2)c(F)c1)c1c[nH]c2ncnc(NCC(F)(F)F)c12 [Compound P-4052, [6-[(4,4-difluorocyclohexyl)amino]-5-fluoro-3-pyridyl]-[4-(2,2,2-trifluoroethylamino)-7H-pyrrolo[2,3-d]pyrimidin-5-yl]methanone]
5 | < 1000 | < 1000 | > 1000 | CCNc1ncnc2[nH]cc(C(=O)c3ccc(NC4CCC(F)(F)CC4)nc3Cl)c12 [Compound P-4050, [2-chloro-6-[(4,4-difluorocyclohexyl)amino]-3-pyridyl]-[4-(ethylamino)-7H-pyrrolo[2,3-d]pyrimidin-5-yl]methanone]
6 | < 10 | < 1000 | < 1000 | O=C(c1cnc(NC2CCC(F)(F)CC2)c(F)c1)c1c[nH]c2ncnc(NC3CC3)c12 [Compound P-4053, [4-(cyclopropylamino)-7H-pyrrolo[2,3-d]pyrimidin-5-yl]-[6-[(4,4-difluorocyclohexyl)amino]-5-fluoro-3-pyridyl]methanone]
7 | < 100 | < 100 | < 1000 | Nc1ncnc2[nH]cc(C(=O)c3ccc(NC4CCC(F)(F)CC4)nc3Cl)c12 [Compound P-4046, (4-amino-7H-pyrrolo[2,3-d]pyrimidin-5-yl)-[2-chloro-6-[(4,4-difluorocyclohexyl)amino]-3-pyridyl]methanone]
8 | < 10 | < 1000 | < 1000 | CC(C)(O)CNc1ncnc2[nH]cc(C(=O)c3ccc(Nc4ccc(C5CC5)nc4)nc3F)c12 [Compound P-4049, [6-[(6-cyclopropyl-3-pyridyl)amino]-2-fluoro-3-pyridyl]-[4-[(2-hydroxy-2-methyl-propyl)amino]-7H-pyrrolo[2,3-d]pyrimidin-5-yl]methanone]
9 | > 1000 | > 1000 | > 1000 | CC(C)=CNc1ncnc2[nH]cc(C(=O)c3ccc(NC4CCC(F)(F)CC4)nc3Cl)c12 [Compound P-4047, [2-chloro-6-[(4,4-difluorocyclohexyl)amino]-3-pyridyl]-[4-(2-methylprop-1-enylamino)-7H-pyrrolo[2,3-d]pyrimidin-5-yl]methanone]
10 | < 100 | < 100 | < 100 | O=C(c1ccc(Nc2ccc(C3CC3)nc2)nc1F)c1c[nH]c2ncnc(C3CC3)c12 [Compound P-4040, [6-(6-Cyclopropyl-pyridin-3-ylamino)-2-fluoro-pyridin-3-yl]-(4-cyclopropyl-7H-pyrrolo[2,3-d]pyrimidin-5-yl)-methanone]
11 | < 100 | < 10 | < 100 | Fc1nc(Nc2ccc(C3CC3)nc2)ccc1Cc1c[nH]c2ncnc(C3CC3)c12 [Compound P-4041, (6-Cyclopropyl-pyridin-3-yl)-[5-(4-cyclopropyl-7H-pyrrolo[2,3-d]pyrimidin-5-ylmethyl)-6-fluoro-pyridin-2-yl]-amine]
12 | < 1000 | < 1000 | > 10000 | Clc1cnc2[nH]cc(Cc3cnc(NC4CCC4)nc3)c2c1 [Compound P-3007, [5-(5-Chloro-1H-pyrrolo[2,3-b]pyridin-3-ylmethyl)-pyrimidin-2-yl]-cyclobutyl-amine]
13 | < 1000 | < 1000 | > 1000 | CCNc1ncnc2[nH]cc(C(=O)c3cnc(NC4CCC(F)(F)CC4)c(F)c3)c12 [Compound P-4051, [6-[(4,4-difluorocyclohexyl)amino]-5-fluoro-3-pyridyl]-[4-(ethylamino)-7H-pyrrolo[2,3-d]pyrimidin-5-yl]methanone]
